Results reported in patent publication EP0184738A2, “Imidazole derivatives, medicaments containing these compounds, and process for their preparation” (Dr. Karl Thomae GmbH, priority 1984, dated 1986).

tested on: despinalisierten Meerschweinchen; assay: Determination of the positive inotropic effect in despinalised guinea pigs; assay type: in vivo; conditions: 1 mg/kg i.v. (Vena jugularis), mean of 3 despinalised guinea pigs, left ventricular pressure
Excerpt: Bestimmung der positiv inotropen Wirkung an despinalisierten Meerschweinchen
Die Untersuchungen wurden an despinalisierten Meerschweinchen durchgeführt. Die Tiere wurden mit 50 % 02 + 50 % N2 beatmet. Der arterielle Blutdruck wurde in der rechten Arteria Carotis mit einem Bell and Howell Druckwandler (4-327-I) gemessen. Für die Erfassung der positiv inotropen Wirkung wurde mit einem Kathetertipmanometer (Millar PR-249) der Druck in dem linken Ventrikel (LV) gemessen. Mittels eines Differenzierers wurde LV-dp/dtmax gewonnen. Die zu untersuchenden Substanzen wurden in eine Vena jugularis injiziert. Als Lösungsdmittel diente 0,9 % NaCl+Polydiol 200 (1:1).
Jede Substanz wurde an 3 Meerschweinchen überprüft. Die Dosen waren 0,1 - 3 mg/kg i.v.. Die nachfolgende Tabelle enthält die Mittelwerte bei 1 mg/kg i.v..
Die neuen Verbindungen sind gut verträglich, so konnte bei der Untersuchung der Substanzen A bis D bis zu einer Dosis von 3 mg/kg i.v. keinerlei herztoxische Wirkungen bzw. Kreislaufschäden beobachtet werden.

Compared with `O=c1[nH][nH]cc2nc(-c3ccc4ccccc4c3)nc1-2` [Substanz A, 2-(Naphth-2-yl)-5H-imidazo[4,5-d]pyridazin-4-on], `COc1ncc2[nH]c(-c3ccc4ccccc4c3)nc2n1` [Substanz C, 2-Methoxy-8-(naphth-2-yl)-purin] is higher in “Zunahme in LV-dp/dtmax” value: 28% for the first, 33% for the second.

Going from `O=c1ccc2[nH]c(-c3cc4ccccc4cc3Cl)nc2[nH]1` [Substanz B, 2-(3-Chlor-naphth-2-yl)-lH-imidazo[4,5-b]pyridin-5-on] to `CCCOc1cc2ccccc2cc1-c1nc2cnc(Cl)nc2[nH]1` [Substanz D, 2-Chlor-8-(3-n-propoxy-naphth-2-yl)-purin], the “Zunahme in LV-dp/dtmax” value falls from 30% to 27%.
